Data taken from US20260315398A1, “POLYPEPTIDE DRUG-CONTAINING SUSTAINED-RELEASE MICROSPHERE, PHARMACEUTICAL FORMULATION THEREOF, PREPARATION METHOD THEREFOR, AND USE THEREOF” (HUILLY PHARMA CO., LTD, priority 2023, published 2026).

Key:
[1] = high-concentration conditions; cited from earlier work
[2] = Effect Simulation of Aggregation Inhibitor, AFM observation of fibrils (FIG. 6); format: physicochemical; conditions: aggregation inhibitors sucrose (1) and phenol (2); inhibitor:drug:water 1:3:100, lyophilized, PBS pH 7.4, AFM
Description: In this embodiment, simulation experiments of anti-aggregation effects are carried out using liraglutide (Lira) and semaglutide (Sema) as examples, respectively, with specific methods as follows.
A mixture of aggregation inhibitors (aggregation inhibitor 1 is sucrose, and aggregation inhibitor 2 is phenol), a drug substance, and deionized water are mixed at a weight ratio of 1:3:100 and subsequently lyophilized. PBS (pH 7.4) is added dropwise to the lyophilized drug powder to simulate gradual infiltration of the drug inside THE microsphere. Afterwards, a portion of the drug is dissolved in the PBS, and an atomic force microscope (AFM) is used to observe whether fibrils are formed by the drug and to simulate structural changes of the drug during the slow permeation process inside the microsphere.

## CCCCCCCCCCCCCCCC(=O)N[C@@H](CCC(=O)NCCCC[C@H](NC(=O)[C@H](C)NC(=O)[C@H](C)NC(=O)[C@H](CCC(N)=O)NC(=O)CNC(=O)[C@H](CCC(=O)O)NC(=O)[C@H](CC(C)C)NC(=O)[C@H](Cc1ccc(O)cc1)NC(=O)[C@H](CO)NC(=O)[C@H](CO)NC(=O)[C@@H](NC(=O)[C@H](CC(=O)O)NC(=O)[C@H](CO)NC(=O)[C@@H](NC(=O)[C@H](Cc1ccccc1)NC(=O)[C@@H](NC(=O)CNC(=O)[C@H](CCC(=O)O)NC(=O)[C@H](C)NC(=O)[C@@H](N)Cc1cnc[nH]1)[C@@H](C)O)[C@@H](C)O)C(C)C)C(=O)N[C@@H](CCC(=O)O)C(=O)N[C@@H](Cc1ccccc1)C(=O)N[C@H](C(=O)N[C@@H](C)C(=O)N[C@@H](Cc1c[nH]c2ccccc12)C(=O)N[C@@H](CC(C)C)C(=O)N[C@H](C(=O)N[C@@H](CCCNC(=N)N)C(=O)NCC(=O)N[C@@H](CCCNC(=N)N)C(=O)NCC(=O)O)C(C)C)[C@@H](C)CC)C(=O)O [liraglutide]
[1]
  aggregation and drug polymer fiber formation: prone to aggregation and even form drug polymer fibers
[2]
  inhibition of fibrillation by aggregation inhibitor: significantly inhibit fibrillation
